Assay results taken from patent US9493432B2, “Cyclopentylbenzamide derivatives and their use for the treatment of psychotic and cognitive disorders” (Takeda Pharmaceutical Company Limited, priority 2013, dated 2016).

Key:
human orexin receptor 1 = human orexin receptor 1 (Homo sapiens (Human), UniProt O43613); assay: Orexin antagonist activity, intracellular calcium FLIPR assay (orexin receptor 1); assay type: cell-based; conditions: RBL-2H3 cells stably expressing human orexin receptor 1; Ca2+ dye FLIPR; compound 15 minutes before orexin-A at approximately 80% maximal response; read-out: Human Orexin1R IC50
Method: (§1) Orexin antagonist activity was determined by measuring changes in intracellular calcium levels using a Ca^2+ sensitive fluorescent dye. The changes in fluorescent signal were monitored by Fluorescent Imaging Plate Reader (FLIPR™) technology available from Molecular Devices, LLC, U.S.A. Orexin mediated increases in intracellular Ca^2+ concentration were readily detected upon activation with orexin-A. Twenty-four hours prior to the assay, RBL-2H3 cells stably expressing either human orexin receptor 1 or human orexin receptor 2 were seeded in cell culture medium in black, clear-bottom 384-well plates (commercially available from Corning Inc., U.S.A.) and grown overnight at 37° C., 5% CO2. On the day of the assay, cell culture media was removed and cells were loaded with Calcium 5 Dye (commercially sold by Molecular Devices, LLC, U.S.A.) for 1 hour at 37° C., 5% CO2. Test compounds (at 10 point half log concentration response curves from 10 μM) were added to cells for 15 minutes prior to the addition of orexin-A to all wells, to achieve a final concentration that produces approximately an 80% maximal response. The IC50 values were determined from ten point concentration response curves. Curves were generated using the average of two wells for each data point.

human orexin receptor 2 = human orexin receptor 2 (Homo sapiens (Human), UniProt O43614); assay: Orexin antagonist activity, intracellular calcium FLIPR assay (orexin receptor 2); assay type: cell-based; conditions: RBL-2H3 cells stably expressing human orexin receptor 2; Ca2+ dye FLIPR; compound 15 minutes before orexin-A at approximately 80% maximal response; read-out: Human Orexin2R IC50
Method: as §1

human orexin receptor 2, sequence (O43614 whole entry): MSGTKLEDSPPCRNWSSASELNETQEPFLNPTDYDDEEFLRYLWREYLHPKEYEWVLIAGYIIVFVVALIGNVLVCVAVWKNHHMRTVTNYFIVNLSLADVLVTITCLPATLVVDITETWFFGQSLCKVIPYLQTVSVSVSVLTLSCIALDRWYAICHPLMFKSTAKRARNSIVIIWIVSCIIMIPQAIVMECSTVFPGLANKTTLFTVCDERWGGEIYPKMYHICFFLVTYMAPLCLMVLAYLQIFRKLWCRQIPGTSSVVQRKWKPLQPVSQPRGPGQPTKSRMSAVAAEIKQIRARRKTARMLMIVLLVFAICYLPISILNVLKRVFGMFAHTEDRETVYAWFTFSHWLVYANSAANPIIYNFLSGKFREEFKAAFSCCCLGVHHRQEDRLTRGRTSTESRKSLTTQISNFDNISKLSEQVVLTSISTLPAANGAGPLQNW
human orexin receptor 1, sequence (O43613 whole entry): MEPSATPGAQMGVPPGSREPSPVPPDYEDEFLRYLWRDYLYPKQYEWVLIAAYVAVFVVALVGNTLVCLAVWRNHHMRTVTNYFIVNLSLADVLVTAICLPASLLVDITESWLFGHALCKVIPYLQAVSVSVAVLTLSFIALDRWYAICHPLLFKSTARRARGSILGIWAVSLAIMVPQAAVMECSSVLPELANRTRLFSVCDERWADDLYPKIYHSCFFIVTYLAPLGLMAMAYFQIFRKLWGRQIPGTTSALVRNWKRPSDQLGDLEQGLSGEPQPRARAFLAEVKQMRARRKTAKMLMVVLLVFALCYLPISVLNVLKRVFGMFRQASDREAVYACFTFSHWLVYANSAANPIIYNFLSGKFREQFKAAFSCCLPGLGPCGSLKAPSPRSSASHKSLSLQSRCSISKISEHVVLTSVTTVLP

Structure (SMILES) | IC50 (human orexin receptor 1) | IC50 (human orexin receptor 2)
COc1cccc(OC)c1C(=O)NC1CN(C(=O)OCc2ccccc2)CC1Nc1nc2ccc(Cl)cc2s1 (stereo not drawn) [Example 22, Benzyl cis-3-[(6-chloro-1,3-benzothiazol-2-yl)amino]-4-[(2,6-dimethoxybenzene)amido]pyrrolidine-1-carboxylate] | 23 nM | 8600 nM
CCOC(=O)N1CC(NC(=O)c2c(OC)cccc2OC)C(Nc2nc3ccc(Cl)cc3s2)C1 (stereo not drawn) [Example 23, Ethyl cis-3-[(6-Chloro-1,3-benzothiazol-2-yl)amino]-4-[(2,6-dimethoxy-benzene)amido]pyrrolidine-1-carboxylate] | 65 nM | 620 nM
Cc1ccc(-n2nccn2)c(C(=O)NC2CCCC2Cc2ccc3ccccc3n2)c1 (stereo not shown) [Example 27, 5-Methyl-N-[2-(quinolin-2-ylmethyl)cyclopentyl]-2-(2H-1,2,3-triazol-2-yl)benzamide] | 52 nM | 8500 nM
CCOc1ccc(C)cc1C(=O)NC1CCCC1Cc1ccc2ccccc2n1 (stereo not shown) [Example 28, 2-Ethoxy-5-methyl-N-[2-(quinolin-2-ylmethyl)cyclopentyl]-benzamide] | 140 nM | 1900 nM
COc1cccc(OC)c1C(=O)NC1CCCC1Cc1ccc2ccccc2n1 (stereo not shown) [Example 29, 2,6-Dimethoxy-N-[2-(quinolin-2-ylmethyl)cyclopentyl]benzamide] | 550 nM | 2900 nM
CCOc1cccc(OCC)c1C(=O)NC1CCCC1Cc1ccc2ccccc2n1 (stereo not shown) [Example 30, 2,6-Diethoxy-N-(2-(quinolin-2-ylmethyl)cyclopentyl)benzamide] | 320 nM | 370 nM
CCOc1ccc(C)cc1C(=O)NC1CCCC1Cc1ccc2ccccc2n1 (stereo not shown) [Example 31, 2-Ethoxy-5-methyl-N-(2-(quinolin-2-ylmethyl)cyclopentyl)-benzamide] | 92 nM | 3300 nM
COc1cccc(OC)c1C(=O)NC1CCCC1Cc1nc2ccc(Cl)cc2s1 (stereo not shown) [Example 32, N-{2-[(6-Chloro-1,3-benzothiazol-2-yl)methyl]cyclopentyl}-2,6-dimethoxybenzamide] | 900 nM | 980 nM
COc1cccc(OC)c1C(=O)N(C)[C@H]1CCC[C@@H]1Nc1nc2ccc(F)cc2s1 [Example 34, N-[(1S,2S)-2-[(6-Fluoro-1,3-benzothiazol-2-yl)amino]cyclopentyl]-2,6-dimethoxy-N-methylbenzamide] | 4.7 nM | 1100 nM
O=C(N[C@H]1CCC[C@@H]1Nc1nc2ccc(F)cc2s1)c1ccccc1-n1cccn1 [Example 35, N-[(1S,2S)-2-[(6-Fluoro-1,3-benzothiazol-2-yl)amino]cyclopentyl]-2-(1H-pyrazol-1-yl)benzamide] | 6.7 nM | 4300 nM
O=C(N[C@H]1CCC[C@@H]1Nc1nc2ccc(F)cc2s1)c1cc(F)ccc1-n1nccn1 [Example 36, 5-Fluoro-N-[(1S,2S)-2-[(6-fluoro-1,3-benzothiazol-2-yl)amino]cyclopentyl]-2-(2H-1,2,3-triazol-2-yl)benzamide] | 8.3 nM | 5400 nM
O=C(N[C@H]1CCC[C@@H]1Nc1nc2ccc(F)cc2s1)c1ccccc1Cl [Example 37, 2-Chloro-N-[(1S,2S)-2-[(6-fluoro-1,3-benzothiazol-2-yl)amino]cyclopentyl]benzamide] | 11 nM | 3500 nM
Cc1ccc(-n2ccnn2)c(C(=O)N[C@H]2CCC[C@@H]2Nc2nc3ccc(F)cc3s2)c1 [Example 38, N-[(1S,2S)-2-[(6-Fluoro-1,3-benzothiazol-2-yl)amino]cyclopentyl]-5-methyl-2-(1H-1,2,3-triazol-1-yl)benzamide] | 13 nM | > 10000 nM
Cc1noc(-c2ccccc2C(=O)N[C@H]2CCC[C@@H]2Nc2nc3ccc(F)cc3s2)n1 [Example 39, N-[(1S,2S)-2-[(6-Fluoro-1,3-benzothiazol-2-yl)amino]cyclopentyl]-2-(3-methyl-1,2,4-oxadiazol-5-yl)benzamide] | 14 nM | 3800 nM
O=C(N[C@H]1CCC[C@@H]1Nc1nc2ccc(F)cc2s1)c1ccccc1-c1ncccn1 [Example 40, N-[(1S,2S)-2-[(6-Fluoro-1,3-benzothiazol-2-yl)amino]cyclopentyl]-2-(pyrimidin-2-yl)benzamide] | 15 nM | 3300 nM
COc1ccc(OC)c(C(=O)N[C@H]2CCC[C@@H]2Nc2nc3ccc(F)cc3s2)c1 [Example 41, N-[(1S,2S)-2-[(6-Fluoro-1,3-benzothiazol-2-yl)amino]cyclopentyl]-2,5-dimethoxybenzamide] | 16 nM | 2100 nM

Structure (SMILES) | IC50 (human orexin receptor 1) | IC50 (human orexin receptor 2)
O=C(N[C@H]1CCC[C@@H]1Nc1nc2ccc(F)cc2s1)c1ccccc1-n1ccnc1 [Example 43, N-[(1S,2S)-2-[(6-Fluoro-1,3-benzothiazol-2-yl)amino]cyclopentyl]-2-(1H-imidazol-1-yl)benzamide] | 39 nM | > 10000 nM
O=C(N[C@H]1CCC[C@@H]1Nc1nc2ccc(F)cc2s1)c1ccccc1-n1cncn1 [Example 44, N-[(1S,2S)-2-[(6-Fluoro-1,3-benzothiazol-2-yl)amino]cyclopentyl]-2-(1H-1,2,4-triazol-1-yl)benzamide] | 51 nM | > 10000 nM
COc1cccc(F)c1C(=O)N[C@H]1CCC[C@@H]1Nc1nc2ccc(F)cc2s1 [Example 46, 2-Fluoro-N-[(1S,2S)-2-[(6-fluoro-1,3-benzothiazol-2-yl)amino]cyclopentyl]-6-methoxybenzamide] | 110 nM | 6300 nM
O=C(N[C@H]1CCC[C@@H]1Nc1nc2ccc(F)cc2s1)c1c(F)cccc1F [Example 47, 2,6-Difluoro-N-[(1S,2S)-2-[(6-fluoro-1,3-benzothiazol-2-yl)amino]-cyclopentyl]benzamide] | 150 nM | > 10000 nM
O=C(N[C@H]1CCC[C@@H]1Nc1nc2ccc(F)cc2s1)c1ccccc1F [Example 48, 2-Fluoro-N-[(1S,2S)-2-[(6-fluoro-1,3-benzothiazol-2-yl)amino]cyclopentyl]-benzamide] | 160 nM | 3700 nM
CCOc1ccccc1C(=O)N[C@H]1CCC[C@@H]1Nc1nc2ccc(F)cc2s1 [Example 49, 2-Ethoxy-N-[(1S,2S)-2-[(6-fluoro-1,3-benzothiazol-2-yl)amino]cyclopentyl]-benzamide] | 190 nM | 1400 nM
COc1ccccc1C(=O)N[C@H]1CCC[C@@H]1Nc1nc2ccc(F)cc2s1 [Example 50, N-[(1S,2S)-2-[(6-Fluoro-1,3-benzothiazol-2-yl)amino]cyclopentyl]-2-methoxybenzamide] | 190 nM | 3400 nM
COc1ccc(F)cc1C(=O)N[C@H]1CCC[C@@H]1Nc1nc2ccc(F)cc2s1 [Example 53, 5-Fluoro-N-[(1S,2S)-2-[(6-fluoro-1,3-benzothiazol-2-yl)amino]cyclopentyl]-2-methoxybenzamide] | 280 nM | 3300 nM
COc1c(F)cccc1C(=O)N[C@H]1CCC[C@@H]1Nc1nc2ccc(F)cc2s1 [Example 54, 3-Fluoro-N-[(1S,2S)-2-[(6-fluoro-1,3-benzothiazol-2-yl)amino]cyclopentyl]-2-methoxybenzamide] | 310 nM | 3500 nM
O=C(N[C@H]1CCC[C@@H]1Nc1nc2ccc(F)cc2s1)c1ccccc1-n1nccn1 [Example 59, N-[(1S,2S)-2-[(6-Fluoro-1,3-benzothiazol-2-yl)amino]cyclopentyl]-2-(2H-1,2,3-triazol-2-yl)benzamide] | 11 nM | 6700 nM
Cc1ccc(-n2nccn2)c(C(=O)NC2CCCC2Cc2cnc3ccccc3n2)c1 (stereo not shown) [Example 63, 5-Methyl-N-[2-(quinoxalin-2-ylmethyl)cyclopentyl]-2-(2H-1,2,3-triazol-2-yl)benzamide] | 48 nM | 4200 nM
COc1cccc(OC)c1C(=O)N[C@H]1CCC[C@@H]1Nc1nc2ccc(F)cc2o1 [Example 66, N-[(1S,2S)-2-[(6-Fluoro-1,3-benzoxazol-2-yl)amino]cyclopentyl]-2,6-dimethoxybenzamide] | 50 nM | > 10000 nM
COc1ccc(C)cc1C(=O)N[C@H]1CCC[C@@H]1Nc1nc2ccc(F)cc2s1 [Example 67, N-[(1S,2S)-2-[(6-Fluoro-1,3-benzothiazol-2-yl)amino]cyclopentyl]-2-methoxy-5-methylbenzamide] | 110 nM | 6500 nM
Cc1cccc(C)c1C(=O)N[C@H]1CCC[C@@H]1Nc1nc2ccc(F)cc2s1 [Example 68, N-[(1S,2S)-2-[(6-Fluoro-1,3-benzothiazol-2-yl)amino]cyclopentyl]-2,6-dimethylbenzamide] | 320 nM | > 10000 nM
O=C(N[C@H]1CCC[C@@H]1Nc1nc2ccc(F)cc2s1)c1c(F)cccc1-n1nccn1 [Example 69, 2-Fluoro-N-[(1S,2S)-2-[(6-fluoro-1,3-benzothiazol-2-yl)amino]cyclopentyl]-6-(2H-1,2,3-triazol-2-yl)benzamide] | 15 nM | 3200 nM
O=C(N[C@H]1CCC[C@@H]1Nc1nc2ccc(F)cc2s1)c1c(F)cccc1Cl [Example 70, 2-Chloro-6-fluoro-N-[(1S,2S)-2-[(6-fluoro-1,3-benzothiazol-2-yl)amino]cyclopentyl]benzamide] | 38 nM | > 10000 nM
